Experimental data reported in the supplement of paper PMC10307832.

How the values were obtained:
Assay in all cases: relative viability (nuclei count vs DMSO), 5 days (fraction); higher = more cells survive
[1] = system: NCI-H2170
Outline: (§1)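 After 5 days of treatment, lung cancer cells in 1536-well plates were fixed and stained in a single step (final 0.05% Triton X-100, 1% formaldehyde, 1 ug/ml Hoechst) and their nuclei counted on 4× images. Treatment had been applied by pin tool the day after seeding as one drug alone or as a fixed anchor-drug dose with five library-drug doses (not always all listed) in √10 steps. Relative viability is the nuclei count of treated wells divided by that of vehicle wells, and values are medians of duplicate plates.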

[2] = system: NCI-H1755
Outline: as §1

[3] = system: EMC-BAC-2
Outline: as §1

[4] = system: NCI-H2023
Outline: as §1

[5] = system: HCC-44
Outline: as §1

[6] = system: HOP-62
Outline: as §1

[7] = system: SW 900
Outline: as §1

[8] = system: NCI-H1437
Outline: as §1

[9] = system: LU99A
Outline: as §1

[10] = system: NCI-H1734
Outline: as §1

[11] = system: NCI-H358
Outline: as §1

[12] = system: LC-2-ad
Outline: as §1

[13] = system: BEN
Outline: as §1

[14] = system: NCI-H1395
Outline: as §1

[15] = system: HCC-15
Outline: as §1

[16] = system: NCI-H3122
Outline: as §1

[17] = system: SW 1573
Outline: as §1

[18] = system: NCI-H650
Outline: as §1

[19] = system: NCI-H727
Outline: as §1

[20] = system: NCI-H2126
Outline: as §1

[21] = system: NCI-H1915
Outline: as §1

CN1CCN(CCOc2cc(OC3CCOCC3)c3c(Nc4c(Cl)ccc5c4OCO5)ncnc3c2)CC1 [Saracatinib] + CC(=O)Nc1cccc(-n2c(=O)n(C3CC3)c(=O)c3c(Nc4ccc(I)cc4F)n(C)c(=O)c(C)c32)c1 [Trametinib] (partner 0.02 µM)
relative viability ([1]; first compound 0.02 µM): 0.917
relative viability ([1]; first compound 0.2 µM): 0.859
relative viability ([1]; first compound 0.6325 µM): 0.916
relative viability ([1]; first compound 2 µM): 0.862
relative viability ([2]; first compound 0.02 µM): 0.724
relative viability ([2]; first compound 0.2 µM): 0.714
relative viability ([2]; first compound 0.6325 µM): 0.75
relative viability ([2]; first compound 2 µM): 0.694
relative viability ([3]; first compound 0.02 µM): 0.896
relative viability ([3]; first compound 0.2 µM): 0.97
relative viability ([3]; first compound 0.6325 µM): 1.11
relative viability ([3]; first compound 2 µM): 0.901
relative viability ([4]; first compound 0.02 µM): 0.52
relative viability ([4]; first compound 0.2 µM): 0.269
relative viability ([4]; first compound 0.6325 µM): 0.487
relative viability ([4]; first compound 2 µM): 0.348
relative viability ([5]; first compound 0.02 µM): 1.05
relative viability ([5]; first compound 0.2 µM): 1.02
relative viability ([5]; first compound 0.6325 µM): 1.18
relative viability ([5]; first compound 2 µM): 1.21
relative viability ([6]; first compound 0.02 µM): 0.412
relative viability ([6]; first compound 0.2 µM): 0.455
relative viability ([6]; first compound 0.6325 µM): 0.441
relative viability ([6]; first compound 2 µM): 0.398
relative viability ([7]; first compound 0.02 µM): 0.624
relative viability ([7]; first compound 0.2 µM): 0.443
relative viability ([7]; first compound 0.6325 µM): 0.647
relative viability ([7]; first compound 2 µM): 0.529
relative viability ([8]; first compound 0.02 µM): 0.652
relative viability ([8]; first compound 0.2 µM): 0.538
relative viability ([8]; first compound 0.6325 µM): 0.733
relative viability ([8]; first compound 2 µM): 0.538
relative viability ([9]; first compound 0.02 µM): 0.532
relative viability ([9]; first compound 0.2 µM): 0.473
relative viability ([9]; first compound 0.6325 µM): 0.565
relative viability ([9]; first compound 2 µM): 0.459
relative viability ([10]; first compound 0.02 µM): 0.7
relative viability ([10]; first compound 0.6325 µM): 0.645
relative viability ([10]; first compound 2 µM): 0.611
relative viability ([11]; first compound 0.02 µM): 0.156
relative viability ([11]; first compound 0.2 µM): 0.131
relative viability ([11]; first compound 0.6325 µM): 0.105
relative viability ([11]; first compound 2 µM): 0.0979
relative viability ([12]; first compound 0.02 µM): 0.9
relative viability ([12]; first compound 0.2 µM): 0.858
relative viability ([12]; first compound 0.6325 µM): 0.993
relative viability ([12]; first compound 2 µM): 0.866
relative viability ([13]; first compound 0.02 µM): 1.04
relative viability ([13]; first compound 0.2 µM): 1.15
relative viability ([13]; first compound 0.6325 µM): 1.17
relative viability ([13]; first compound 2 µM): 1.13
relative viability ([14]; first compound 0.02 µM): 1.07
relative viability ([14]; first compound 0.2 µM): 0.995
relative viability ([14]; first compound 0.6325 µM): 0.953
relative viability ([14]; first compound 2 µM): 0.905
relative viability ([15]; first compound 0.02 µM): 0.44
relative viability ([15]; first compound 0.2 µM): 0.371
relative viability ([15]; first compound 0.6325 µM): 0.455
relative viability ([15]; first compound 2 µM): 0.388
relative viability ([16]; first compound 0.02 µM): 0.212
relative viability ([16]; first compound 0.2 µM): 0.163
relative viability ([16]; first compound 0.6325 µM): 0.154
relative viability ([16]; first compound 2 µM): 0.155
relative viability ([17]; first compound 0.02 µM): 0.507
relative viability ([17]; first compound 0.2 µM): 0.598
relative viability ([17]; first compound 0.6325 µM): 0.457
relative viability ([17]; first compound 2 µM): 0.364
relative viability ([18]; first compound 0.02 µM): 0.993
relative viability ([18]; first compound 0.2 µM): 0.877
relative viability ([18]; first compound 0.6325 µM): 1.03
relative viability ([18]; first compound 2 µM): 0.92
relative viability ([19]; first compound 0.02 µM): 0.369
relative viability ([19]; first compound 0.2 µM): 0.402
relative viability ([19]; first compound 0.6325 µM): 0.379
relative viability ([19]; first compound 2 µM): 0.308
relative viability ([20]; first compound 0.02 µM): 0.592
relative viability ([20]; first compound 0.2 µM): 0.509
relative viability ([20]; first compound 0.6325 µM): 0.551
relative viability ([20]; first compound 2 µM): 0.517
relative viability ([21]; first compound 0.02 µM): 0.305
relative viability ([21]; first compound 0.2 µM): 0.292
relative viability ([21]; first compound 0.6325 µM): 0.251
relative viability ([21]; first compound 2 µM): 0.265

CN1CCN(CCOc2cc(OC3CCOCC3)c3c(Nc4c(Cl)ccc5c4OCO5)ncnc3c2)CC1 [Saracatinib] + CC(=O)c1c(C)c2cnc(Nc3ccc(N4CCNCC4)cn3)nc2n(C2CCCC2)c1=O [Palbociclib] (partner 0.5 µM)
relative viability ([1]; first compound 0.02 µM): 0.39
relative viability ([1]; first compound 0.2 µM): 0.39
relative viability ([1]; first compound 0.6325 µM): 0.441
relative viability ([1]; first compound 2 µM): 0.354
relative viability ([2]; first compound 0.02 µM): 0.448
relative viability ([2]; first compound 0.2 µM): 0.395
relative viability ([2]; first compound 0.6325 µM): 0.45
relative viability ([2]; first compound 2 µM): 0.435
relative viability ([3]; first compound 0.02 µM): 0.507
relative viability ([3]; first compound 0.2 µM): 0.483
relative viability ([3]; first compound 0.6325 µM): 0.517
relative viability ([3]; first compound 2 µM): 0.511
relative viability ([4]; first compound 0.02 µM): 0.379
relative viability ([4]; first compound 0.2 µM): 0.31
relative viability ([4]; first compound 0.6325 µM): 0.282
relative viability ([4]; first compound 2 µM): 0.19
relative viability ([5]; first compound 0.02 µM): 1.01
relative viability ([5]; first compound 0.2 µM): 0.974
relative viability ([5]; first compound 0.6325 µM): 0.979
relative viability ([5]; first compound 2 µM): 0.938
relative viability ([6]; first compound 0.02 µM): 0.452
relative viability ([6]; first compound 0.2 µM): 0.396
relative viability ([6]; first compound 0.6325 µM): 0.459
relative viability ([6]; first compound 2 µM): 0.477
relative viability ([7]; first compound 0.02 µM): 0.548
relative viability ([7]; first compound 0.2 µM): 0.432
relative viability ([7]; first compound 0.6325 µM): 0.383
relative viability ([7]; first compound 2 µM): 0.293
relative viability ([8]; first compound 0.02 µM): 0.355
relative viability ([8]; first compound 0.2 µM): 0.337
relative viability ([8]; first compound 0.6325 µM): 0.455
relative viability ([8]; first compound 2 µM): 0.308
relative viability ([9]; first compound 0.02 µM): 0.413
relative viability ([9]; first compound 0.2 µM): 0.336
relative viability ([9]; first compound 0.6325 µM): 0.349
relative viability ([9]; first compound 2 µM): 0.31
relative viability ([10]; first compound 0.02 µM): 0.362
relative viability ([10]; first compound 0.6325 µM): 0.372
relative viability ([10]; first compound 2 µM): 0.329
relative viability ([11]; first compound 0.02 µM): 0.136
relative viability ([11]; first compound 0.2 µM): 0.118
relative viability ([11]; first compound 0.6325 µM): 0.127
relative viability ([11]; first compound 2 µM): 0.0903
relative viability ([12]; first compound 0.02 µM): 0.571
relative viability ([12]; first compound 0.2 µM): 0.448
relative viability ([12]; first compound 0.6325 µM): 0.504
relative viability ([12]; first compound 2 µM): 0.434
relative viability ([13]; first compound 0.02 µM): 0.513
relative viability ([13]; first compound 0.2 µM): 0.407
relative viability ([13]; first compound 0.6325 µM): 0.485
relative viability ([13]; first compound 2 µM): 0.435
relative viability ([14]; first compound 0.02 µM): 0.606
relative viability ([14]; first compound 0.2 µM): 0.562
relative viability ([14]; first compound 0.6325 µM): 0.598
relative viability ([14]; first compound 2 µM): 0.516
relative viability ([15]; first compound 0.02 µM): 0.763
relative viability ([15]; first compound 0.2 µM): 0.677
relative viability ([15]; first compound 0.6325 µM): 0.758
relative viability ([15]; first compound 2 µM): 0.753
relative viability ([16]; first compound 0.02 µM): 0.194
relative viability ([16]; first compound 0.2 µM): 0.174
relative viability ([16]; first compound 0.6325 µM): 0.199
relative viability ([16]; first compound 2 µM): 0.185
relative viability ([17]; first compound 0.02 µM): 0.416
relative viability ([17]; first compound 0.2 µM): 0.399
relative viability ([17]; first compound 0.6325 µM): 0.382
relative viability ([17]; first compound 2 µM): 0.28
relative viability ([18]; first compound 0.02 µM): 0.336
relative viability ([18]; first compound 0.2 µM): 0.314
relative viability ([18]; first compound 0.6325 µM): 0.33
relative viability ([18]; first compound 2 µM): 0.307
relative viability ([19]; first compound 0.02 µM): 0.604
relative viability ([19]; first compound 0.2 µM): 0.692
relative viability ([19]; first compound 0.6325 µM): 0.674
relative viability ([19]; first compound 2 µM): 0.551
relative viability ([20]; first compound 0.02 µM): 0.358
relative viability ([20]; first compound 0.2 µM): 0.344
relative viability ([20]; first compound 0.6325 µM): 0.363
relative viability ([20]; first compound 2 µM): 0.349
relative viability ([21]; first compound 0.02 µM): 0.488
relative viability ([21]; first compound 0.2 µM): 0.468
relative viability ([21]; first compound 0.6325 µM): 0.537
relative viability ([21]; first compound 2 µM): 0.462
